# US9896441B2 (Lycera Corporation, priority 2014, dated 2018)
# What was measured:
# Gal4-RORγ-LBD = biological target: T1, Gal4-RORγ-LBD (Homo sapiens, UniProt P51449); assay: Gal4-RORγ Luciferase Reporter Assay in HEK-293T Cells; format: cell-based; details: HEK-293 cells; for Gal4-RORγ Assay Max Response: maximum response
# T1 construct: expressed in transfected cells
# T1 sequence (P51449 269-508 limits assumed): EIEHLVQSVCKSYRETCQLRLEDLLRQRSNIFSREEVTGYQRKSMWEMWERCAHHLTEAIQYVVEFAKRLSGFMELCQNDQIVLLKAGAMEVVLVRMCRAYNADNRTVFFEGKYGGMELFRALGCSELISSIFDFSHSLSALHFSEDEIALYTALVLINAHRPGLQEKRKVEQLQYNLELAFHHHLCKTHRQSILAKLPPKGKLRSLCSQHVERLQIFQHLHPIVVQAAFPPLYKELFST
# Outline: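 HEK-293 cells were co-transfected with Gal4-RORγ-LBD and a Gal4-luciferase reporter, then exposed overnight at 37 °C to compounds with […] ursolic acid present (0.2% DMSO). Luminescence was read with One-Glo after 10 min at RT, untreated signal was set as 100, and Max Response was taken as the upper plateau of a 4-parameter logistic fit.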
# RORγ-LBD = biological target: T2, RORγ-LBD (Homo sapiens, UniProt P51449); assay: RORγ-Ligand Binding Domain (LBD) TR-FRET Assay; format: biochemical; details: for TR-FRET Assay Max Response: maximum response;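 as to TR-FRET Assay Max Response: 665/615 nm signal ratio set to 100 without ursolic acid or test compound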
# T2 construct: made in house; host or cells: SF9 cells (baculovirus); used as diluted lysate
# T2 sequence (P51449 269-508 limits assumed): T1 sequence (P51449 269-508 limits assumed)
# Outline: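 SF9 lysate containing His-RORγ-LBD, ~3 nM final; coactivator peptide biotin-SRC1 LXXLL, 200 nM final; ursolic acid 2 μM final; DMSO 1% final; Tris pH 7.0 buffer with KCl, EDTA, DTT, BSA. TR-FRET format.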
# [1] = luciferase reporter, in presence of ursolic acid
# [2] = luciferase reporter, with ursolic acid
# [3] = ursolic acid present, luciferase readout
# [4] = with 2 μM ursolic acid (RORγ antagonist), highest test concentration 10 μM
Compound,EC50 (Gal4-RORγ-LBD; [1]) [nM],Gal4-RORγ Assay Max Response (Gal4-RORγ-LBD; [1]),EC50 (RORγ-LBD; RORγ-LBD TR-FRET assay) [nM],TR-FRET Assay Max Response (RORγ-LBD; RORγ-LBD TR-FRET assay),EC50 (Gal4-RORγ-LBD; [2]) [nM],EC50 (RORγ-LBD; RORγ-LBD TR-FRET) [nM],further results
"C/C(=C\c1ccc2c(c1)N(S(=O)(=O)c1cccc(C(F)(F)F)c1)C[C@H](CCC(=O)N1CCC[C@@H]1C(=O)O)O2)c1c(F)cccc1Cl [Example 129H, (3-((S)-6-((E)-2-(2-chloro-6-fluorophenyl)prop-1-en-1-yl)-4-((3-(trifluoromethyl)phenyl)sulfonyl)-3,4-dihydro-2H-benzo[b][1,4]oxazin-2-yl)propanoyl)-D-proline]",< 500,*** (a value in the range of greater than 150 to 200),< 500,*** (a value in the range of greater than 150 to 200),–,–,–
"COC(=O)CC[C@H]1CN(S(=O)(=O)c2cccc(C(F)(F)F)c2)c2c(ccc(/C=C(\C)c3c(F)cccc3Cl)c2C)O1 [Example 57, Methyl (S,E)-3-(6-(2-(2-chloro-6-fluorophenyl)prop-1-en-1-yl)-5-methyl-4-((3-(trifluoromethyl)phenyl)sulfonyl)-3,4-dihydro-2H-benzo[b][1,4]oxazin-2-yl)propanoate]",–,–,–,–,> 10000,< 500,–
"O=C(O)CC[C@H]1CN(S(=O)(=O)c2cccc(C(F)(F)F)c2)c2cc(/C=C/c3ncccc3F)ccc2O1 [Example 89CE, (S,E)-3-(6-(2-(3-fluoropyridin-2-yl)vinyl)-4-((3-(trifluoromethyl)phenyl)sulfonyl)-3,4-dihydro-2H-benzo[b][1,4]oxazin-2-yl)propanoic acid]",–,–,–,–,500 to 5000,< 500,–
O=C(O)C1Cc2ccc(OCc3c(F)cccc3Cl)cc2N(S(=O)(=O)c2cccc(C(F)(F)F)c2)C1 (stereo not shown),–,–,–,–,–,–,EC50 (Gal4-RORγ-LBD; [3]): 500 to 5000 nM; EC50 (RORγ-LBD; [4]): < 500 nM
"C/C(=C\c1ccc2c(c1)N(S(=O)(=O)c1cccc(C(F)(F)F)c1)C[C@H](CCCN1CCS(=O)(=O)CC1)O2)c1c(F)cccc1Cl [Example 119H, (S,E)-4-(3-(6-(2-(2-chloro-6-fluorophenyl)prop-1-en-1-yl)-4-((3-(trifluoromethyl)-phenyl)sulfonyl)-3,4-dihydro-2H-benzo[b][1,4]oxazin-2-yl)propyl)thiomorpholine 1,1-dioxide]",< 500,** (a value in the range of greater than 90 to 150),< 500,*** (a value in the range of greater than 150 to 200),–,–,–
"COc1cc(S(=O)(=O)N2C[C@H](CCNC(C)=O)Oc3ccc(/C=C(\C)c4c(F)cccc4Cl)cc32)ccc1F [Example 116B, (S,E)-N-(2-(6-(2-(2-chloro-6-fluorophenyl)prop-1-en-1-yl)-4-((4-fluoro-3-methoxyphenyl)-sulfonyl)-3,4-dihydro-2H-benzo[b][1,4]oxazin-2-yl)ethyl)acetamide]",< 500,* (a value in the range of 30 to 90),< 500,*** (a value in the range of greater than 150 to 200),–,–,–
"CCOc1ncc(Cl)cc1S(=O)(=O)N1C[C@H](CCC(=O)OC)Oc2ccc(/C=C(\C)c3c(F)cccc3Cl)cc21 [Example 67, Methyl (S,E)-3-(4-((5-chloro-2-ethoxypyridin-3-yl)sulfonyl)-6-(2-(2-chloro-6-fluorophenyl)prop-1-en-1-yl)-3,4-dihydro-2H-benzo[b][1,4]oxazin-2-yl)propanoate]",–,–,–,–,500 to 5000,< 500,–
"CC/C(=C\c1ccc2c(c1)N(S(=O)(=O)c1cccc(C(F)(F)F)c1)C[C@H](CCC(=O)O)O2)C(C)C [Example 191G, (S,E)-3-(6-(2-ethyl-3-methylbut-1-en-1-yl)-4-((3-(trifluoromethyl)-phenyl)sulfonyl)-3,4-dihydro-2H-benzo[b][1,4]oxazin-2-yl)propanoic acid]",–,–,–,–,–,–,EC50 (Gal4-RORγ-LBD; [3]): < 500 nM; EC50 (RORγ-LBD; [4]): < 500 nM
"CCOc1nn(CC)cc1S(=O)(=O)N1C[C@H](CCC(=O)O)Oc2ccc(/C=C/c3c(F)cccc3C(F)(F)F)cc21 [Example 88, (S,E)-3-(4-((3-Ethoxy-1-ethyl-1H-pyrazol-4-yl)sulfonyl)-6-(2-fluoro-6-(trifluoromethyl)styryl)-3,4-dihydro-2H-benzo[b][1,4]oxazin-2-yl)propanoic acid]",–,–,–,–,500 to 5000,< 500,–
"COC(=O)CC[C@H]1CN(S(=O)(=O)c2cccc(C(F)(F)F)c2)c2cc(/C=C(\C)c3c(F)cccc3Cl)c(Cl)cc2O1 [Example 45, (S,E)-Methyl 3-(7-chloro-6-(2-(2-chloro-6-fluorophenyl)prop-1-en-1-yl)-4-((3-(trifluoromethyl)phenyl)sulfonyl)-3,4-dihydro-2H-benzo[b][1,4]oxazin-2-yl)propanoate]",–,–,–,–,500 to 5000,< 500,–
"C/C(=C\c1ccc2c(c1)N(S(=O)(=O)c1cccc(C(F)(F)F)c1)C[C@H](N)C2)c1c(F)cccc1Cl [Example 164, (R,E)-7-(2-(2-Chloro-6-fluorophenyl)prop-1-en-1-yl)-1-((3-(trifluoromethyl)phenyl)sulfonyl)-1,2,3,4-tetrahydroquinolin-3-amine]",500 to 5000,–,< 500,–,–,–,–
"COC(=O)CC[C@H]1CN(S(=O)(=O)c2ccc(F)c(OC(F)F)c2)c2cc(/C=C/c3c(F)cccc3Cl)ccc2O1 [Example 89CU, methyl (S,E)-3-(6-(2-chloro-6-fluorostyryl)-4-((3-(difluoromethoxy)-4-fluorophenyl)-sulfonyl)-3,4-dihydro-2H-benzo[b][1,4]oxazin-2-yl)propanoate]",–,–,–,–,500 to 5000,< 500,–
"O=S(=O)(c1cccc(C(F)(F)F)c1)N1C[C@H](CO)Oc2ccc(Oc3ccccc3)cc21 [Example 130, (R)-(6-Phenoxy-4-((3-(trifluoromethyl)phenyl)sulfonyl)-3,4-dihydro-2H-benzo[b][1,4]oxazin-2-yl)methanol]",500 to 5000,** (a value in the range of greater than 90 to 150),< 500,*** (a value in the range of greater than 150 to 200),–,–,–
"CCOc1nn(CC)cc1S(=O)(=O)N1C[C@H](CCC(=O)O)Oc2ccc(/C=C/c3ncccc3Cl)cc21 [Example 89EE, (S,E)-3-(6-(2-(3-chloropyridin-2-yl)vinyl)-4-((3-ethoxy-1-ethyl-1H-pyrazol-4-yl)sulfonyl)-3,4-dihydro-2H-benzo[b][1,4]oxazin-2-yl)propanoic acid]",–,–,–,–,500 to 5000,< 500,–
"COC(=O)CC[C@H]1CN(S(=O)(=O)c2cccc(C(F)(F)F)c2)c2cc(/C=C(\C)c3ccccc3C)ccc2O1 [Example 86AL, (S,E)-methyl 3-(6-(2-(o-tolyl)prop-1-en-1-yl)-4-((3-(trifluoromethyl)-phenyl)sulfonyl)-3,4-dihydro-2H-benzo[b][1,4]oxazin-2-yl)propanoate]",–,–,–,–,500 to 5000,< 500,–
"C/C(=C\c1ccc2c(c1)N(S(=O)(=O)c1cccc(C(F)(F)F)c1)C[C@H](CCC(=O)N1CCS(=O)(=O)CC1)O2)c1c(F)cccc1Cl [Example 127C, (S,E)-3-(6-(2-(2-chloro-6-fluorophenyl)prop-1-en-1-yl)-4-((3-(trifluoro-methyl)phenyl)sulfonyl)-3,4-dihydro-2H-benzo[b][1,4]oxazin-2-yl)-1-(1,1-dioxidothio-morpholino)propan-1-one]",< 500,** (a value in the range of greater than 90 to 150),< 500,**** (a value greater than 200),–,–,–
"COc1cc(S(=O)(=O)N2C[C@H](CNC(C)=O)Oc3ccc(/C=C(\C)c4c(F)cccc4Cl)cc32)ccc1F [Example 109B, (S,E)-N-((6-(2-(2-chloro-6-fluorophenyl)prop-1-en-1-yl)-4-((4-fluoro-3-methoxyphenyl)-sulfonyl)-3,4-dihydro-2H-benzo[b][1,4]oxazin-2-yl)methyl)acetamide]",< 500,* (a value in the range of 30 to 90),< 500,** (a value in the range of greater than 90 to 150),–,–,–
"COC(=O)CC[C@H]1CN(S(=O)(=O)c2cccc(C(F)F)c2)c2cc(/C=C/c3c(Cl)cccc3C(F)(F)F)ccc2O1 [Example 81, Methyl (S,E)-3-(6-(2-chloro-6-(trifluoromethyl)styryl)-4-((3-(difluoromethyl)phenyl)sulfonyl)-3,4-dihydro-2H-benzo[b][1,4]oxazin-2-yl)propanoate]",–,–,–,–,< 500,< 500,–
"Cc1ccc(/C=C/c2ccc3c(c2)N(S(=O)(=O)c2cccc(OC(F)F)c2)C[C@H](CCC(=O)O)O3)cc1 [Example 89BE, (S,E)-3-(4-((3-(difluoromethoxy)phenyl)sulfonyl)-6-(4-methylstyryl)-3,4-dihydro-2H-benzo[b][1,4]oxazin-2-yl)propanoic acid]",–,–,–,–,> 10000,500 to 5000,–
"Cn1ncnc1/C=C/c1ccc2c(c1)N(S(=O)(=O)c1cccc(C(F)(F)F)c1)C[C@H](CCC(=O)O)O2 [Example 89CJ, (S,E)-3-(6-(2-(1-methyl-1H-1,2,4-triazol-5-yl)vinyl)-4-((3-(trifluoromethyl)phenyl)sulfonyl)-3,4-dihydro-2H-benzo[b][1,4]-oxazin-2-yl)propanoic acid]",–,–,–,–,> 10000,> 10000,–
